Source: PubChem BioAssay (NCI)
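GI50: concentration for 50% inhibition of growth. At the TGI there is no net growth.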

Experiments:
Experiment in all cases: NCI tumour cell line growth inhibition, 384-well format
786-0 renal = test system: 786-0 renal
A498 renal = test system: A498 renal
A549 NSCLC = test system: A549 NSCLC
ACHN renal = test system: ACHN renal
BT-549 breast = test system: BT-549 breast
CAKI-1 renal = test system: CAKI-1 renal
CCRF-CEM leukemia = test system: CCRF-CEM leukemia
COLO 205 colon = test system: COLO 205 colon
DU-145 prostate = test system: DU-145 prostate
EKVX NSCLC = test system: EKVX NSCLC
HCT-116 colon = test system: HCT-116 colon
HCT-15 colon = test system: HCT-15 colon
HL-60(TB) leukemia = test system: HL-60(TB) leukemia
HOP-62 NSCLC = test system: HOP-62 NSCLC
HOP-92 NSCLC = test system: HOP-92 NSCLC
HS 578T breast = test system: HS 578T breast
IGROV1 ovarian = test system: IGROV1 ovarian
K-562 leukemia = test system: K-562 leukemia
KM12 colon = test system: KM12 colon
LOX IMVI melanoma = test system: LOX IMVI melanoma
MALME-3M melanoma = test system: MALME-3M melanoma
MCF7 breast = test system: MCF7 breast
MDA-MB-231 breast = test system: MDA-MB-231 breast
MDA-MB-435 melanoma = test system: MDA-MB-435 melanoma
MDA-MB-468 breast = test system: MDA-MB-468 breast
MOLT-4 leukemia = test system: MOLT-4 leukemia
NCI-H23 lung = test system: NCI-H23 lung
NCI-H322M lung = test system: NCI-H322M lung
NCI-H460 NSCLC = test system: NCI-H460 NSCLC
NCI-H522 lung = test system: NCI-H522 lung
NCI/ADR-RES ovarian = test system: NCI/ADR-RES ovarian
OVCAR-3 ovarian = test system: OVCAR-3 ovarian
OVCAR-4 ovarian = test system: OVCAR-4 ovarian
OVCAR-5 ovarian = test system: OVCAR-5 ovarian
PC-3 prostate = test system: PC-3 prostate
RPMI-8226 leukemia = test system: RPMI-8226 leukemia
RXF 393 renal = test system: RXF 393 renal
SF-268 CNS = test system: SF-268 CNS
SF-539 CNS = test system: SF-539 CNS
SK-MEL-2 melanoma = test system: SK-MEL-2 melanoma
SK-MEL-28 melanoma = test system: SK-MEL-28 melanoma
SK-MEL-5 melanoma = test system: SK-MEL-5 melanoma
SK-OV-3 ovarian = test system: SK-OV-3 ovarian
SN12C renal = test system: SN12C renal
SNB-19 CNS = test system: SNB-19 CNS
SR leukemia = test system: SR leukemia
SW-620 colon = test system: SW-620 colon
T-47D breast = test system: T-47D breast
TK-10 renal = test system: TK-10 renal
U251 glioblastoma = test system: U251 glioblastoma
UO-31 renal = test system: UO-31 renal

In the case of `COc1ccccc1S(=O)(=O)Nc1ccc2c(c1)CN(C)C(=O)N2`, the GI50 ([…]-0 renal) is reported as 16.7 nM, the TGI (786-0 renal) is reported as 15900 nM and the GI50 (A498 renal) is reported as under 10 nM. The TGI (A498 renal) was 60700 nM, the GI50 (A549 NSCLC) was 33.1 nM and the TGI (A549 NSCLC) was over 100000 nM. For the same molecule, the GI50 (ACHN renal) was 15.3 nM, the TGI (ACHN renal) was over 100000 nM and the GI50 (BT-549 breast) was under 10 nM. For the same molecule, the TGI (BT-549 breast) was 32.4 nM, the GI50 (CAKI-1 renal) was under 10 nM and the TGI (CAKI-1 renal) was over 100000 nM. For the same molecule, the GI50 (CCRF-CEM leukemia) was under 10 nM, the TGI (CCRF-CEM leukemia) was under 10 nM and the GI50 (COLO 205 colon) was under 10 nM. The TGI (COLO 205 colon) was 62.6 nM, the GI50 (DU-145 prostate) was 20.2 nM and the TGI (DU-145 prostate) was 58.1 nM. For the same molecule, the GI50 (EKVX NSCLC) was 20.5 nM, the TGI (EKVX NSCLC) was over 100000 nM and the GI50 (HCT-116 colon) was 14.5 nM. For the same molecule, the TGI (HCT-116 colon) was 77.3 nM, the GI50 (HCT-15 colon) was 12.6 nM and the TGI (HCT-15 colon) was 46.9 nM. For the same molecule, the GI50 (HL-60(TB) leukemia) was under 10 nM, the TGI (HL-60(TB) leukemia) was 13.1 nM and the GI50 (HOP-62 NSCLC) was 20.8 nM. For the same molecule, the TGI (HOP-62 NSCLC) was over 100000 nM, the GI50 (HOP-92 NSCLC) was under 10 nM and the TGI (HOP-92 NSCLC) was 66800 nM. For the same molecule, the GI50 (HS 578T breast) was under 10 nM, the TGI (HS 578T breast) was 19.2 nM and the GI50 (IGROV1 ovarian) was 22.5 nM. For the same molecule, the TGI (IGROV1 ovarian) was 73600 nM, the GI50 (K-562 leukemia) was under 10 nM and the TGI (K-562 leukemia) was 18 nM. For the same molecule, the GI50 (KM12 colon) was 18.8 nM, the TGI (KM12 colon) was 71.4 nM and the GI50 (LOX IMVI melanoma) was 21.3 nM. The TGI (LOX IMVI melanoma) was 87.1 nM, the GI50 (MALME-3M melanoma) was under 10 nM and the TGI (MALME-3M melanoma) was over 100000 nM. For the same molecule, the GI50 (MCF7 breast) was 35.9 nM, the TGI (MCF7 breast) was 12300 nM and the GI50 (MDA-MB-231 breast) was 32.4 nM. For the same molecule, the TGI (MDA-MB-231 breast) was over 100000 nM, the GI50 (MDA-MB-435 melanoma) was under 10 nM and the TGI (MDA-MB-435 melanoma) was under 10 nM. For the same molecule, the GI50 (MDA-MB-468 breast) was 17.1 nM, the TGI (MDA-MB-468 breast) was 34.7 nM and the GI50 (MOLT-4 leukemia) was under 10 nM. For the same molecule, the TGI (MOLT-4 leukemia) was 19.5 nM, the GI50 (NCI-H23 lung) was 16.3 nM and the TGI (NCI-H23 lung) was 53.7 nM. For the same molecule, the GI50 (NCI-H322M lung) was 18.8 nM, the TGI (NCI-H322M lung) was over 100000 nM and the GI50 (NCI-H460 NSCLC) was 21.3 nM. It also gave a TGI (NCI-H460 NSCLC) of 45.3 nM, a GI50 (NCI-H522 lung) of under 10 nM and a TGI (NCI-H522 lung) of under 10 nM. It also gave a GI50 (NCI/ADR-RES ovarian) of 12 nM, a TGI (NCI/ADR-RES ovarian) of 27.1 nM and a GI50 (OVCAR-3 ovarian) of 12 nM. It also gave a TGI (OVCAR-3 ovarian) of 33.2 nM, a GI50 (OVCAR-4 ovarian) of 16.2 nM and a TGI (OVCAR-4 ovarian) of over 100000 nM. The GI50 (OVCAR-5 ovarian) was 26 nM, the TGI (OVCAR-5 ovarian) was over 100000 nM and the GI50 (PC-3 prostate) was under 10 nM. It also gave a TGI (PC-3 prostate) of over 100000 nM, a GI50 (RPMI-8226 leukemia) of 19.5 nM and a TGI (RPMI-8226 leukemia) of 37.3 nM. It also gave a GI50 (RXF 393 renal) of under 10 nM, a TGI (RXF 393 renal) of under 10 nM and a GI50 (SF-268 CNS) of 20.3 nM. It also gave a TGI (SF-268 CNS) of 134 nM, a GI50 (SF-539 CNS) of 14.4 nM and a TGI (SF-539 CNS) of 37.6 nM. For the same molecule, the GI50 (SK-MEL-2 melanoma) was 18.1 nM, the TGI (SK-MEL-2 melanoma) was 39.3 nM and the GI50 (SK-MEL-28 melanoma) was under 10 nM. The TGI (SK-MEL-28 melanoma) was over 100000 nM, the GI50 (SK-MEL-5 melanoma) was under 10 nM and the TGI (SK-MEL-5 melanoma) was 12.9 nM. The GI50 (SK-OV-3 ovarian) was under 10 nM, the TGI (SK-OV-3 ovarian) was 7040 nM and the GI50 (SN12C renal) was 24.7 nM. It also gave a TGI (SN12C renal) of over 100000 nM, a GI50 (SNB-19 CNS) of 19.8 nM and a TGI (SNB-19 CNS) of 20000 nM. The GI50 (SR leukemia) was under 10 nM, the TGI (SR leukemia) was under 10 nM and the GI50 (SW-620 colon) was 31.1 nM. The TGI (SW-620 colon) was over 100000 nM, the GI50 (T-47D breast) was 17200 nM and the TGI (T-47D breast) was over 100000 nM. The GI50 (TK-10 renal) was under 10 nM, the TGI (TK-10 renal) was over 100000 nM and the GI50 (U251 glioblastoma) was 26.7 nM. The TGI (U251 glioblastoma) was 82.2 nM, the GI50 (UO-31 renal) was 20.6 nM and the TGI (UO-31 renal) was over 100000 nM.
